Experimental data as given in article PMC4471549 (Angewandte Chemie (International Ed. in English), 2015).

Experiments:
STAT5a (SH2 domain) = target: T1, STAT5a (SH2 domain) (Homo sapiens, UniProt P42229); experiment: competitive fluorescence polarization assay; format: binding
T1 sequence (P42229 1-794): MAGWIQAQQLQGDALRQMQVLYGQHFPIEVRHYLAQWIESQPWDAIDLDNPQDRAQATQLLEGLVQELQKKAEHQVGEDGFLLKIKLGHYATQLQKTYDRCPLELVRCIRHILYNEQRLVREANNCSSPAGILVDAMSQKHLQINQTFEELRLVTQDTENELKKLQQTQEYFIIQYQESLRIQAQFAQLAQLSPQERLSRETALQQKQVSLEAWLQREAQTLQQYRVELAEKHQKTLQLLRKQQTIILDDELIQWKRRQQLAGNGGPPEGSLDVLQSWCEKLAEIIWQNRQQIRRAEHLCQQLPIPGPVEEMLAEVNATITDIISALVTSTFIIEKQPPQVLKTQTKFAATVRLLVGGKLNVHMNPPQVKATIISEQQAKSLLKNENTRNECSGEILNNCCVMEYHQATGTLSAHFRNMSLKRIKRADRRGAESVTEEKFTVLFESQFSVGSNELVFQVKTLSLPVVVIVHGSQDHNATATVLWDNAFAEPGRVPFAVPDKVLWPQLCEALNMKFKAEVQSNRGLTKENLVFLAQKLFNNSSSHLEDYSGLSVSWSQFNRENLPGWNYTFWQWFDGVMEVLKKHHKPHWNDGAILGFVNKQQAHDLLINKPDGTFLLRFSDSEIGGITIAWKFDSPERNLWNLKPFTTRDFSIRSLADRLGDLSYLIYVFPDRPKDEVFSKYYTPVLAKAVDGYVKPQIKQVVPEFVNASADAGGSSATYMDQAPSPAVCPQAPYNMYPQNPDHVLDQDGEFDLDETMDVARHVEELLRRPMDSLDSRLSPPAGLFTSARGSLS

STAT5b (SH2 domain) = target: T2, STAT5b (SH2 domain) (Homo sapiens, UniProt P51692); experiment: competitive fluorescence polarization assay; format: binding
T2 sequence (P51692 1-787 limits assumed): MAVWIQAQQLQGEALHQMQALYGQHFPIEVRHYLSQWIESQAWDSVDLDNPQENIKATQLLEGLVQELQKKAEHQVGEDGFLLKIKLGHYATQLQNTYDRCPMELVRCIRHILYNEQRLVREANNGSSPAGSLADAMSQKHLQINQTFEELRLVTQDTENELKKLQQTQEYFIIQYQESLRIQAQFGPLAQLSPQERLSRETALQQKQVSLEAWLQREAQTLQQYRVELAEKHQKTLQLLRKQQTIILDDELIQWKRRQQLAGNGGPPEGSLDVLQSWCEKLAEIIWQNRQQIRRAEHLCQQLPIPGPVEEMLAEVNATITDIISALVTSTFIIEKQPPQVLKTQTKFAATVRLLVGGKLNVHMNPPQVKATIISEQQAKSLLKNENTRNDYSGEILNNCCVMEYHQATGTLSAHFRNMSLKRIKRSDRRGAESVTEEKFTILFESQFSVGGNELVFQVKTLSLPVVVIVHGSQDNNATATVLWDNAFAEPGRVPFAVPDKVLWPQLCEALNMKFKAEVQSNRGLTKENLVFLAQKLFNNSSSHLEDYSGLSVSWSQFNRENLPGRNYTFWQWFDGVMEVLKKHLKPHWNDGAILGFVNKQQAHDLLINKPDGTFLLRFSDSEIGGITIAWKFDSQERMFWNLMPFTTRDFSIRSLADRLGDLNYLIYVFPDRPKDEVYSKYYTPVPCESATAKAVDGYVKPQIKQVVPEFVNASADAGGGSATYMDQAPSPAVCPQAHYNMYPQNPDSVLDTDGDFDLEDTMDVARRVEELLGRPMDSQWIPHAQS

| SMILES | Ki (STAT5a (SH2 domain)) [µM] | Ki (STAT5b (SH2 domain)) [µM] |
| --- | --- | --- |
| O=C(NCCc1ccc(OP(=O)(O)O)c(OP(=O)(O)O)c1)OCC1c2ccccc2-c2ccccc21 [compound 7, Fmoc-protected dopamine bisphosphate] | 16 ± 0.8 | 0.45 ± 0.04 |
| COC(=O)[C@H](Cc1ccc(OP(=O)(O)O)c(OP(=O)(O)O)c1)NC(=O)OCC1c2ccccc2-c2ccccc21 [compound 8, Fmoc-protected L-Dopa methyl ester bisphosphate] | 7.8 ± 1 | 0.46 ± 0.08 |
